Laboratory results taken from patent US20100285540A1, “Process for the preparation of (R)-Beta-Arylalanines by coupled Racemase/Aminomutase catalysis” (Board of Trustees of Michigan State University, priority 2009, published 2010).
Read-outs that look alike come from different tables or passages of the source. Blank lines part the entries; values can stand above or below the compound they belong to.

Assays:
[1] = tested on: previously reported racemase; conditions: naturally occurring aromatic amino acids; cited from earlier work
[2] = molecular target: T1, phenylalanine aminomutase (PAM) (Taxus canadensis, UniProt Q6GZ04); test: Equilibration of α- and β-arylalanines by PAM; format: biochemical; design: His6 (N); made in house; host or cells: E. coli BL21(DE3); conditions: 100 μg PAM, 31° C.; for β-product to α-substrate ratio: after 20 h, 0.4 mM substrate
T1 sequence (Q6GZ04 1-698): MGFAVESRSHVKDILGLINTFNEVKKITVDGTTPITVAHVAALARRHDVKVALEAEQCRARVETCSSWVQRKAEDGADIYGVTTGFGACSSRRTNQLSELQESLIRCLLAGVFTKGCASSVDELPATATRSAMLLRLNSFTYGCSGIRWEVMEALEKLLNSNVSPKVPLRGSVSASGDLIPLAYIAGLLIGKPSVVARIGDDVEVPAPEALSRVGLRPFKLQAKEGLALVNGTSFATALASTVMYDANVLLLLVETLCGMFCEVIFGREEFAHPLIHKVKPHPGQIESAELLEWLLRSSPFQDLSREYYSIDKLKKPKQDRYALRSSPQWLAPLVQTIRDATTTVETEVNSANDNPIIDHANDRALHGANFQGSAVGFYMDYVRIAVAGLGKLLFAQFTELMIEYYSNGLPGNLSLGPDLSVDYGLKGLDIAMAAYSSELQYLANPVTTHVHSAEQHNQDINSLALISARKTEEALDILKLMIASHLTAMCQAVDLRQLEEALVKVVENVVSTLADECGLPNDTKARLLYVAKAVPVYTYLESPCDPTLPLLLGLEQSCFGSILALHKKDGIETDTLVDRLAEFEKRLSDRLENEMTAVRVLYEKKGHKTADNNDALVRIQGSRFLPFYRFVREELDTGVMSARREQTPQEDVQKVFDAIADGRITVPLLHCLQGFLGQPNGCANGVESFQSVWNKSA
Procedure: Assessing the Equilibration Rate of α- and β-Arylalanines by PAM. […] An aliquot was withdrawn from each reaction at five time points (0, 3, 6, 9 and 20 h). The ratio of (R)-β-arylalanine to (S)-α-arylalanine in each aliquot was calculated by GC/EI-MS fragmentation analysis and the abundances of the base peak fragment ions of the amino acid derivatives were compared as described earlier. The relative amount of each α-arylalanine and β-arylalanine at equilibrium was determined by linear regression analysis of the area of the base peak ion of the derivatized α- and β-arylalanines generated in the EI-MS. The peak area was converted to concentration of product (or substrate) by solving the corresponding linear equation, derived by plotting the area of the base peak ion (produced by the corresponding authentic standard in the mass spectrometer) against concentration ranging from 0 to 1.5 mM.

[3] = tested on: amino acid racemase and PAM; test: Coupled enzyme reaction (racemase + PAM, DKR conditions); format: biochemical; conditions: 0.4 mM racemic α-arylalanine, 200 μg/mL racemase, 100 μg/mL PAM, 20 h
Procedure: Coupled Enzyme Reaction. The coupled enzyme reaction mixture incubated at 31° C. contained partially purified amino acid racemase (200 μg) and PAM (100 μg) in 1 mL of 50 mM phosphate buffer (pH 8.0) containing 5% (v/v) glycerol. Each of the aryl α-amino acids (0.4 mM) were individually added to a separate assay tube containing the coupled enzyme mixture. After 20 h, the reactions were terminated by basification to pH 10-12 (with 0.5 N NaOH solution) and the amino acids were derivatized for quantification by chiral GC/EI-MS analysis as described previously.

[4] = molecular target: T1, phenylalanine aminomutase (PAM); test: Effect of (R)-α-phenylalanine on PAM activity (kinetic constants)
Procedure: Evaluation of the Effect of (R)-α-Phenylalanine on PAM Activity. Phenylalanine aminomutase (100 μg/mL) was added to 50 mM phosphate buffer (pH 8.0) containing 5% (v/v) glycerol at 31° C. containing either (S)-α-phenylalanine or (R)-β-phenylalanine at a range of concentrations (0.05, 0.10, 0.20, 0.40, 0.75, 1.5, and 3 mM). The reactions were incubated at 31° C. for 90 min under steady state conditions. Identical series of assays were run in parallel for the (S)-α- or (R)-β-phenylalanine as substrates, except 0.2 mM and 0.75 mM of (R)-α-phenylalanine were added separately to each series. Double reciprocal plots of velocity (vo) and concentration were constructed for the forward and reverse PAM reaction data sets. The equation of the best-fit line (R^2=0.98) was determined (Microsoft Excel 2003, Microsoft Corporation, Redmond, Wash.) to calculate the apparent KM and Ki for the appropriate reaction.^17

[5] = molecular target: T1, phenylalanine aminomutase (PAM); design: His6 (N); made in house; host or cells: E. coli BL21(DE3); conditions: enantiopure (S)-α-phenylalanine, 10 μg/mL enzyme, 10 μM substrate, same temperature; cited from earlier work
[6] = molecular target: T2, amino acid racemase from Pseudomonas putida (KT2440) (Pseudomonas putida, UniProt Q88GJ9); test: Racemization of α-arylalanines by amino acid racemase; format: biochemical
T2 construct: His6 (N); made in house; host or cells: E. coli BL21(DE3)
T2 sequence (Q88GJ9 25-409): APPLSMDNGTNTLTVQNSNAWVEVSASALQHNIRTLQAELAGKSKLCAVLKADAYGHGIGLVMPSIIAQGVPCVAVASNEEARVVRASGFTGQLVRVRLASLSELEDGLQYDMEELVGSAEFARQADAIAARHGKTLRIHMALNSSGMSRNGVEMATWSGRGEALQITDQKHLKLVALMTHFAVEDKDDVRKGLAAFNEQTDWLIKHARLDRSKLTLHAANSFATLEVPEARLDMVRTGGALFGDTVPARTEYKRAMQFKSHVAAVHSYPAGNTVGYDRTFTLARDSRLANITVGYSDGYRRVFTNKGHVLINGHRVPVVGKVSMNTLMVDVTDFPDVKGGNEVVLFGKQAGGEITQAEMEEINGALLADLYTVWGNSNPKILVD
Procedure: Assessing the Racemization Rate of α-Arylalanines by the Amino Acid Racemase. The partially purified (>90%) amino acid racemase (200 μg/mL) was added to 2.5 mL of 50 mM phosphate buffer (pH 8.0) containing 5% (v/v) glycerol and one different (S)-α-arylalanine (1.5 mM) in separate assays; the mixtures were incubated at 31° C. An aliquot was withdrawn from each reaction at five time points (0.5, 10, 30, 60, and 360 min). A similar time course experiment was conducted with (R)-α-phenylalanine.
Cofactor Dependency of the Amino Acid Racemase. To assess whether sufficient PLP, made by the E. coli BL21(DE3) expression host, remained bound to the functional PLP-dependent racemase for the duration of the assay, partially purified enzyme (400 μg) was added to each of two 2-mL assays that contained (S)-α-phenylalanine (1.5 mM). To one assay, exogenous PLP (50 μM) was added, and to the other, no cofactor was added. After 6 h, the contents of the reaction vial without PLP added were divided into two fractions […]; to one fraction was added PLP (50 μM), and the other fraction remained unchanged. Additional (S)-α-phenylalanine was added to a final concentration of 1.5 mM in all three assays, and incubated for 14 h.
Evaluation of the Effect of (R)-β-Phenylalanine on Racemase Activity. The partially purified amino acid racemase (400 μg) in 50 mM phosphate (2 mL, pH 8.0) containing 5% (v/v) glycerol buffer and (S)-α-phenylalanine (0.75 mM) was incubated in separate assays with or without (R)-β-phenylalanine (0.75 mM) added. Aliquots (0.5 mL) of each reaction mixture were withdrawn from each assay at three time points (30, 60 and 360 min). The amino acids in each fraction were derivatized and analyzed by chiral GC/EI-MS as described previously. The mol % of (S)-α-, (R)-α-arylalanine, and (R)-β-arylalanine in each sample were assessed by comparing the abundance of the diagnostic base peak fragment ion (m/z) derived by GC/EI-MS fragmentation for each of the corresponding analytes.

Compound: N[C@@H](Cc1ccccc1)C(=O)O (racemic) [phenylalanine]
Vrel [1]: 0.18 | Keq ([2]; racemic substrate 0.4 mM, 20 h): 1.8 | increase in conversion to (R)-β-arylalanine under DKR conditions compared to PAM alone [3]: 19%

inhibition of the PAM reaction (forward) ([4]; 0.2 mM and 0.75 mM (R)-α-phenylalanine): did not significantly inhibit | inhibition of the reverse PAM reaction ([4]; (R)-β-phenylalanine as substrate): not inhibited
Compound: N[C@H](Cc1ccccc1)C(=O)O [(R)-α-Phenylalanine, (R)-α-phenylalanine]

increase in conversion to (R)-β-arylalanine under DKR conditions compared to PAM alone [3]: 16%
Compound: NC(Cc1ccc(F)cc1)C(=O)O (racemic) [4′-fluoro-α-arylalanine, 2-amino-3-(4′-fluorophenyl)propionic acid]

Compound: N[C@@H](Cc1ccco1)C(=O)O [(S)-2-furanyl-α-alanine, (S)-2-amino-3-(2′-furanyl)propionic acid]
β-product to α-substrate ratio [2]: 0.41

increase in conversion to (R)-β-arylalanine under DKR conditions compared to PAM alone [3]: 12%
Compound: Cc1ccc(CC(N)C(=O)O)cc1 (racemic) [4′-methyl-α-arylalanine, (R,S)-2-amino-3-(4′-methylphenyl)propionic acid]

Compound: (S)-α-phenylalanine
Keq (previous study) [5]: 1.1 | Vmax ([4]; forward reaction, with (R)-α-phenylalanine, no evident change relative to no inhibitor): 0.1 µmol/min/mg | Km ([4]; read-out: KM of PAM, in the absence of (R)-α-phenylalanine): 700 µM | Km ([4]; read-out: apparent Michaelis constant (KM apparent), forward reaction, in the presence of (R)-α-phenylalanine): 1100 µM

increase in conversion to (R)-β-arylalanine under DKR conditions compared to PAM alone [3]: 14%
Compound: NC(Cc1cccc(F)c1)C(=O)O (racemic) [3′-fluoro-α-arylalanine, 2-amino-3-(3′-fluorophenyl)propionic acid]

Compound: N[C@H](CC(=O)O)c1ccccc1 [(R)-β-phenylalanine, (R)-3-amino-3-phenylpropionic acid]
substrate of the racemase [6]: nor was (R)-β-amino acid a substrate of the racemase | effect on racemase reaction rate / activity ([6]; β-arylalanine added to racemization of (S)-α-arylalanine): not affect the reaction rate

Compound: Cc1ncc(COP(=O)(O)O)c(C=O)c1O [PLP, pyridoxal-5′-phosphate, reference compound]
change in racemase reaction rate with or without supplementation ([6]; 1.5 mM α-arylalanines, exogenous PLP 50 μM): No change in the reaction rate

increase in conversion to (R)-β-arylalanine under DKR conditions compared to PAM alone [3]: 12%
Compound: NC(Cc1cccs1)C(=O)O (racemic) [2′-thienyl-α-arylalanine, (R,S)-3-(2′-thienyl)alanine]

Compound: N[C@@H](Cc1c[nH]cn1)C(=O)O [histidine]
Vrel [1]: 1

Compound: N[C@@H](Cc1c[nH]c2ccccc12)C(=O)O [tryptophan]
Vrel [1]: 0.004

Compound: N[C@@H](Cc1cccs1)C(=O)O [(S)-2-thienyl-α-alanine, (S)-3-(2′-thienyl)alanine]
β-product to α-substrate ratio [2]: 0.71
